In patent publication US7227043B2, “2-phenyl-2-substituted-1,3-diketones” (Bayer CropScience Ag, priority 2002, dated 2007):

How the values were obtained:
Format in all cases: in vivo
Tetranychus urticae = assay: Tetranychus test (OP-resistant/dip treatment); settings: 100 ppm, bean plants dipped, OP-resistant
Description: Tetranychus Test (OP-Resistant/Dip Treatment)
• Solvent: 7 parts by weight of dimethylformamide • Emulsifier: 2 parts by weight of alkylaryl polyglycol ether
To produce a suitable preparation of active compound, 1 part by weight of active compound is mixed with the stated amounts of solvent and emulsifier, and the concentrate is diluted with emulsifier-containing water to the desired concentration.
Bean plants (Phaseolus vulgaris) which are heavily infested by all stages of the greenhouse […] spider mite (Tetranychus urticae) are dipped into a preparation of active compound of the desired concentration.
After the desired period of time, the effect in % is determined. 100% means that all spider mites have been killed; 0% means that none of the spider mites have been killed.

Echinochloa = assay: Pre-emergence test, Echinochloa; settings: 250 g of ai/ha, after three weeks, 100% = total destruction
Description: (§1) • Solvent: 5 parts by weight of acetone • Emulsifier: 1 part by weight of alkylaryl polyglycol ether
(§2) To produce a suitable preparation of active compound, 1 part by weight of active compound is mixed with the stated amount of solvent, the stated amount of emulsifier is added and the concentrate is diluted with water to the desired concentration.
(§3) Seeds of the test plants are sown in normal soil. After about 24 hours, the soil is sprayed with the preparation of active compounds such that the particular amounts of active compound desired are applied per unit area. The concentration of the spray liquor is chosen such that the particular amounts of active compound desired are applied in 1000 l of water/ha.
(§4) After three weeks, the degree of damage to the plants is rated in % damage in comparison to the development of the untreated control.
(§5) The figures denote: • 0%=no effect (like untreated control) • 100%=total destruction

Sugar beet = assay: Pre-emergence test, sugar beet; settings: 250 g of ai/ha, after three weeks, 100% = total destruction
Description: as §1, §2, §3, §4, §5

Venturia inaequalis = assay: Venturia test (apple)/protective; settings: protective, 10 days after inoculation; for % efficacy: 100 g/ha
Description: (§6) Venturia Test (Apple)/Protective […] To produce a suitable preparation of active compound, 1 part by weight of active compound is mixed with the stated amounts of solvent and emulsifier, and the concentrate is diluted with water to the desired concentration. To test for protective activity, young plants are sprayed with the preparation of active compound at the stated application rate. After the spray coating has dried on, the plants are inoculated with an aqueous conidia suspension of the apple scab pathogen Venturia inaequalis and then remain in an incubation cabin at about 20° C. and 100% relative atmospheric humidity for 1 day.

Setaria = assay: Pre-emergence test, Setaria; settings: 250 g of ai/ha, after three weeks, 100% = total destruction
Description: as §1, §2, §3, §4, §5

[1] = tested on: larvae of the mustard beetle (Phaedon cochleariae); assay: Phaedon larvae test; settings: 500 ppm, cabbage leaves dipped
Description: (§7) Phaedon larvae Test • Solvent: 7 parts by weight of dimethylformamide • Emulsifier: 2 parts by weight of alkylaryl polyglycol ether To produce a suitable preparation of active compound, 1 part by weight of active compound is mixed with the stated amounts of solvent and emulsifier, and the concentrate is diluted with emulsifier-containing water to the desired concentration. Cabbage leaves (Brassica oleracea) are treated by being dipped into the preparation of active compound of the desired concentration and are populated with larvae of the mustard beetle (Phaedon cochleariae) while the leaves are still moist. After the desired period of time, the kill in % is determined. 100% means that all beetle larvae have been killed; 0% means that none of the beetle larvae have been killed.

Alopecurus = assay: Pre-emergence test, Alopecurus; settings: 250 g of ai/ha, after three weeks, 100% = total destruction
Description: as §1, §2, §3, §4, §5

[2] = tested on: caterpillars of the armyworm (Spodoptera frugiperda); assay: Spodoptera frugiperda test; settings: 500 ppm, cabbage leaves dipped
Description: as §7, with “Spodoptera frugiperda” for “Phaedon larvae”, “caterpillars” for “larvae”, “armyworm (Spodoptera frugiperda)” for “mustard beetle (Phaedon cochleariae)”, “caterpillars” for “beetle larvae”

Sphaerotheca fuliginea = assay: Sphaerotheca test (cucumber)/protective; settings: 100 g/ha, protective, 7 days after inoculation
Description: Sphaerotheca Test (Cucumber)/Protective […] To produce a suitable preparation of active compound, 1 part by weight of active compound is mixed with the stated amounts of solvent and emulsifier, and the concentrate is diluted with water to the desired concentration. To test for protective activity, young plants are sprayed with the preparation of active compound at the stated application rate. After the spray coating has dried on, the plants are inoculated with an aqueous spore suspension of Sphaerotheca fuliginea The plants are then placed in a greenhouse at about 23° C. and a relative atmospheric humidity of about 70%.

Phytophthora infestans = settings: 750 g/ha; protective; tomato; 7 days after inoculation
Meloidogyne incognita = assay: Meloidogyne test; settings: 20 ppm, lettuce in sand, 100% = no galls
Description: Meloidogyne Test • Solvent: 7 parts by weight of dimethylformamide • Emulsifier: 2 parts by weight of alkylaryl polyglycol ether To produce a suitable preparation of active compound, 1 part by weight of active compound is mixed with the stated amounts of solvent and emulsifier, and the concentrate is diluted with water to the desired concentration. Containers are filled with sand, solution of active compound, Meloidogyne incognita egg/larvae suspension and lettuce seeds. The lettuce seeds germinate and the plants develop. On the roots, galls are formed. After the desired period of time, the nematicidal action is determined in % by the gall formation. 100% means that no galls have been formed; 0% means that the number of galls on the treated plants corresponds to that of the untreated control.

[3] = tested on: peach aphid (Myzus persicae); assay: Myzus test; settings: 500 ppm, cabbage leaves dipped
Description: as §7, with “Myzus” for “Phaedon larvae”, “oleracea) which are heavily infested by the peach aphid (Myzus persicae)” for “oleracea)”, “concentration.” for “concentration and are populated with larvae of the mustard beetle (Phaedon cochleariae) while the leaves are still moist.”, “aphids” for “beetle larvae”

Plasmopara viticola = assay: Plasmopara test (grapevine)/protective; settings: 144 h, protective, 6 days after inoculation, read-out: % efficacy
Description: as §6, with “Plasmopara” for “Venturia”, “(Grapevine)/Protective” for “(Apple)/Protective”, “spore” for “conidia”, “Plasmopara viticola” for “the apple scab pathogen Venturia inaequalis”, “day. […] The plants are then moistened and placed in an incubation cabin for 1 day.” for “day.”

Botrytis cinerea = assay: Botrytis test (bean)/protective; settings: 48 h, protective, 2 days after inoculation, read-out: % efficacy
Description: Botrytis Test (Bean)/Protective
• Solvents: 24.5 parts by weight of acetone • 24.5 parts by weight of dimethylacetamide • Emulsifier: 1.0 part by weight of alkylaryl polyglycol ether
To produce a suitable preparation of active compound, 1 part by weight of active compound is mixed with the stated amounts of solvent and emulsifier, and the concentrate is diluted with water to the desired concentration.
To test for protective activity, young plants are sprayed with the preparation of active compound at the stated application rate. After the spray coating has dried on, 2 small pieces of agar colonized by Botrytis cinerea are placed on each leaf. The inoculated plants are placed in a dark chamber at about 20° C. and 100% relative atmospheric humidity.
2 days after the inoculation, the size of the infected areas on the leaves is evaluated. 0% means an efficacy which corresponds to that of the control, whereas an efficacy of 100% means that no infection is observed.

| Structure (SMILES) | Kill rate in % after 7d (Tetranychus urticae) [%] | % damage, Echinochloa (Echinochloa) [%] | % damage, Sugar beet (Sugar beet) [%] | % damage, Setaria (Setaria) [%] | Kill rate in % after 7d [1] [%] | % damage, Alopecurus (Alopecurus) [%] | Kill rate in % after 7d [2] [%] | Efficacy in % (Phytophthora infestans) [%] | further results |
| --- | --- | --- | --- | --- | --- | --- | --- | --- | --- |
| Cc1ccc(-c2ccc(Cl)cc2)cc1C1(Cl)C(=O)CC(C)(C)CC1=O [Ex. I-2-3] | 100 | 80 | 0 | 90 | 100 | 80 | 100 | – | % efficacy (Venturia inaequalis): 86% |
| CC1(C)CC(=O)C(Cl)(c2cc(-c3ccc(Cl)cc3)ccc2Cl)C(=O)C1 [Ex. I-2-1] | 100 | 90 | 0 | 80 | 100 | 70 | 100 | 89 | % efficacy (Sphaerotheca fuliginea): 97%; % efficacy (Venturia inaequalis): 73%; Effect in % after 14d (nematicidal action by gall formation) (Meloidogyne incognita): 90% |
| Cc1ccc(-c2ccc(Cl)cc2)cc1C1(Cl)C(=O)CC2(CCCCCC2)C1=O (stereo not drawn) [Ex. I-1-4] | – | – | – | – | – | – | – | 90 | – |
| CC(C)C1CC(=O)C(Cl)(c2cc(Br)ccc2Cl)C(=O)C1 (stereo not drawn) [Ex. I-2-6] | – | – | – | – | – | – | – | – | Effect in % after 14d (nematicidal action by gall formation) (Meloidogyne incognita): 80% |
| Cc1ccc(-c2ccc(Cl)cc2)cc1C1(Cl)C(=O)CC2(CCCC2)CC1=O [Ex. I-2-2] | 98 | 95 | 0 | 90 | 100 | 90 | 100 | – | – |
| Cc1ccc(-c2ccc(Cl)cc2)cc1C1(Cl)C(=O)CC2(CCCC2)C1=O (stereo not drawn) [Ex. I-1-3] | – | – | – | – | – | – | – | 80 | – |
| Cc1ccc(-c2ccc(Cl)cc2)cc1C1(Cl)C(=O)CC2(CCCCC2)C1=O (stereo not drawn) [Ex. I-1-1] | 100 | 100 | 0 | 90 | 100 | – | – | – | Kill rate in % after 6d [3]: 80%; Emax at 100 g/ha (Venturia inaequalis; Venturia inaequalis, 240 h, read-out: % efficacy): 100%; Emax at 100 g/ha (Plasmopara viticola): 100%; Emax at 100 g/ha (Botrytis cinerea): 96% |
| O=C1CC2(CCCC2)CC(=O)C1(Cl)c1cc(Br)ccc1Cl [Ex. I-2-4] | 80 | – | – | – | – | – | – | – | – |
| O=C1CC2(CCCC2)CC(=O)C1(Cl)c1cc(-c2ccc(Cl)cc2)ccc1Cl [Ex. I-2-5] | 98 | – | – | – | 100 | – | 100 | – | – |
